Values quoted from earlier work as cited in paper PMC10247525 (Colloids and surfaces. B, Biointerfaces, 2023).
≈ marks a conversion by molar mass, not a printed value. Where “and” joins values, the source holds several entries; their conditions need not be identical. Equal entries are not always repeated.

Columns and labels:
[1] = cited from earlier work
[2] = cited from earlier work; remark: listed apart in the source
[3] = cited from earlier work; remark: listed apart in the source

| SMILES | solubility in water [1] | solubility in methanol [2] | logP (octanol/water) [3] |
| --- | --- | --- | --- |
| O=c1[nH]cc(F)c(=O)[nH]1 [5-Fluorouracil] | 12.5 mg/ml and 96 mM | 18 mg/mL (≈ 138 mM) | – |
| COc1cccc2c1C(=O)c1c(O)c3c(c(O)c1C2=O)C[C@@](O)(C(=O)CO)C[C@@H]3O[C@H]1C[C@H](N)[C@H](O)[C@H](C)O1 [Doxorubicin] | 52 mg/ml and 90 mM | sparingly | – |
| CC(=O)O[C@H]1C(=O)[C@@]2(C)[C@H]([C@H](OC(=O)c3ccccc3)[C@]3(O)C[C@H](OC(=O)[C@H](O)[C@@H](NC(=O)c4ccccc4)c4ccccc4)C(C)=C1C3(C)C)[C@]1(OC(C)=O)CO[C@@H]1C[C@@H]2O [Paclitaxel] | sparingly | 50 mg/mL (≈ 58.6 mM) | 4 |
